# Laboratory results from patent publication EP0355409A2, “Use of prolylendopeptidase inhibitors in the treatment of AIDS” (KABUSHIKI KAISHA YAKULT HONSHA, priority 1988, dated 1990).
# Square brackets hold non-standard residues; d marks the D form. Peptide text beside a SMILES is read from it. * marks the point of attachment. Cbz = O=C(OCc1ccccc1)*; Thz = O=C(O)[CH]1CSCN1
# What was measured:
# [1] = system: LAV-1 infected CEM cells (CEM/LAV-1) and MOLT4 Clone 8; assay: Inhibition of syncytia formation in mixed culture of HIV-infected and non-infected T cells; format: cell-based; design: key: -: Absolutely no inhibition of syncytium formation.; ±: Slight inhibition of syncytium formation.; +: Partial inhibition of syncytium formation.; ++: Substantial inhibition of syncytium formation.; +++: Complete inhibition of syncytium formation; conditions: 1 mM; CEM/LAV-1 + MOLT4 Clone 8, 37°C, 18 hours
# Source text: When HIV-infected T cells and non-infected T cells are mixed in a test tube, the infected T cells and non-infected T cells undergo fusion and form giant cells. This "syncytium forming phenomenon" has already been known to be observed upon their mixing. This phenomenon is characteristic to intercellular infection from HIV and is regarded as an evidence for HIV infection of T cells.
# (§1) LAV-1 infected CEM cells (CEM/LAV-1, 2 x 10⁴) and MOLT4 Clone 8 (1 x 10⁵) were used as HIV-infected cells and non-infected cells, respectively. Those two types of cells were cultured in 200 µl/well of RPMI1640 medium added with 10% FCS in a 96-well microplate. The PEP inhibitors of this invention and comparative product, which are shown in Table 1, were separately added. The cells were cultured at 37°C for 18 hours in a capneic incubator. Formation of syncytia was observed. The PEP inhibitory action was measured according to the following method.
# [2] = molecular target: T1, PEP derived from bovine brain (Bos taurus, UniProt Q9XTA2); assay: Measurement of PEP inhibitory action (substrate Z-Gly-Pro-β-naphtyl amide); format: biochemical; conditions: pH 7.0, 37°C, read-out: PEP Inhibition IC50
# T1 construct: PEP derived from bovine brain; from tissue; host or cells: bovine brain
# T1 sequence (Q9XTA2 1-710): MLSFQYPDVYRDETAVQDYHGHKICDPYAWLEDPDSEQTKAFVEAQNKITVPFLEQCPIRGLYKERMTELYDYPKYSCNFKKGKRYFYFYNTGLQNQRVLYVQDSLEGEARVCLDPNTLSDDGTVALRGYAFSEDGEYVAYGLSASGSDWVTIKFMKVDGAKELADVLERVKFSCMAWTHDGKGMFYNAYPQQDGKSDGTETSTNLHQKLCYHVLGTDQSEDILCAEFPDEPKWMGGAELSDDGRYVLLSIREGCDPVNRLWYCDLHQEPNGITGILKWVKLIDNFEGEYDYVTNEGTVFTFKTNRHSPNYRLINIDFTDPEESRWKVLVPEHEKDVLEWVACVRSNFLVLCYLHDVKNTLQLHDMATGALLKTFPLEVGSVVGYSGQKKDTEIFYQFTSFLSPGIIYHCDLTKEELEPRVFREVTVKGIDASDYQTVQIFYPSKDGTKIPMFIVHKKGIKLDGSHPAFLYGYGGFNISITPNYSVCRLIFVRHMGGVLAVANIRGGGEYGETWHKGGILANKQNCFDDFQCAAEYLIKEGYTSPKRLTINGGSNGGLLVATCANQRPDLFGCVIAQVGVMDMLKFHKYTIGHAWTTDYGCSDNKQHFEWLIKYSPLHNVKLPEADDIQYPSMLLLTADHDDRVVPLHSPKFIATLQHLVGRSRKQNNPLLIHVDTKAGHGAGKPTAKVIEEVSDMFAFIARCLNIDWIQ
# Protocol: as §1, with “Those” for “LAV-1 infected CEM cells (CEM/LAV-1, 2 x 10⁴) and MOLT4 Clone 8 (1 x 10⁵) were used as HIV-infected cells and non-infected cells, respectively. Those”
# Z-Gly-Pro-β-naphtyl amide was used as a substrate and the inhibitory action against PEP derived from bovine brain was measured.
# 0.7 ml of 20 mM-tris HCl buffer (pH 7.0) containing 10 mM of EDTA and 10 mM of 2-mercaptoethanol was added with 100 µl of PEP (about 0.14 u/ml) and 100 µl of a test solution which had been prepared to have a predetermined concentration (0, 10⁻⁹ - 10⁻⁴M), and subjected to preincubation at 37°C for 5 minutes. To this was added various concentrations of a substrate which had been dissolved in 100 µl of 40% dioxane followed by incubation at 37°C for 15 minutes to proceed an exzymatic reaction. The reaction was terminated by the use of 25% trichloroacetic acid. The solution was centrifugally separated at 3,000 rpm for 10 minutes to obtain 0.5 ml of a supernatent, to which was added 0.5 ml of 0.1% nitrous acid, and 3 minutes after, 0.05% N-(1-naphtyl)ethylendediaminedihydrochloride ethanol solution. After allowing the mixture to stand at 37°C for 25 minutes, the absorbance at 570 nm was measured. […] Enzyme activity unit (µmol/min/ml) = ΔOD x 0.42 x dilution ratio
Structure (SMILES),Inhibition of Syncytia Formation [1],IC50 [2] [µM]
O=C(C1CCCN1C(=O)OCc1ccccc1)N1CCCCC1 (stereo not drawn),±,> 1000
O=C(C1CSCN1C(=O)OCc1ccccc1)N1CCOCC1 (stereo not drawn),,0.54
O=C(C1CSCN1C(=O)OCc1ccccc1)N1CCCC1 (stereo not drawn),,0.16
O=C(C1CCCN1C(=O)OCc1ccccc1)N1CCSC1 (stereo not drawn),++,0.0046
O=C(C1CSCN1C(=O)OCc1ccccc1)N1CCSC1 (stereo not drawn),+++,0.00014
O=CC1CSCN1C(=O)C1CCCN1C(=O)OCc1ccccc1 (stereo not drawn) (Cbz-Pro-[Thz]-aldehyde; configuration not given here),++,0.001
O=CC1CSCN1C(=O)C1CSCN1C(=O)OCc1ccccc1 (stereo not drawn) (Cbz-[Thz]-[Thz]-aldehyde; configuration not given here),+++,
"O=C(C1CSCN1)N1CCSC1 (stereo not drawn) [comparative product, reference compound]",,> 1000
